According to publication PMC9253027, “Methyl probes in proteins for determining ligand binding mode in weak protein–ligand complexes” (Scientific Reports, 2022):

Target: T1, EcDsbA (DsbA, oxidized) (Escherichia coli, UniProt P0AEG4)
T1 construct: 21 kDa oxidized EcDsbA
Experiment: X-ray crystal structure ([…] Å, soaking), intermolecular NOEs/NMR2, KD from HSQC chemical shift perturbation titration
Type: binding

T1 sequence (P0AEG4 20-208): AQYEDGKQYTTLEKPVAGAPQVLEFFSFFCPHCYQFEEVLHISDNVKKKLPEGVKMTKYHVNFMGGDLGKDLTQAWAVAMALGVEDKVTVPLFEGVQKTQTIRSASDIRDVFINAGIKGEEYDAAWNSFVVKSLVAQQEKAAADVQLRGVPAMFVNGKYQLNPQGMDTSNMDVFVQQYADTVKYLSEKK

`O=C(O)c1sc(CCCc2ccccc2)nc1-c1ccccc1` [compound 1, phenylthiazole 1] gave a Kd of about 900 µM.
